# In paper PMC4113810, “Hainanerectamines A–C, Alkaloids from the Hainan Sponge Hyrtios erecta” (Marine Drugs, 2014):
# Molecular target: T1, Aurora A (Homo sapiens, UniProt O14965)
# T1 construct: gene AURKA
# T1 sequence (O14965 1-403): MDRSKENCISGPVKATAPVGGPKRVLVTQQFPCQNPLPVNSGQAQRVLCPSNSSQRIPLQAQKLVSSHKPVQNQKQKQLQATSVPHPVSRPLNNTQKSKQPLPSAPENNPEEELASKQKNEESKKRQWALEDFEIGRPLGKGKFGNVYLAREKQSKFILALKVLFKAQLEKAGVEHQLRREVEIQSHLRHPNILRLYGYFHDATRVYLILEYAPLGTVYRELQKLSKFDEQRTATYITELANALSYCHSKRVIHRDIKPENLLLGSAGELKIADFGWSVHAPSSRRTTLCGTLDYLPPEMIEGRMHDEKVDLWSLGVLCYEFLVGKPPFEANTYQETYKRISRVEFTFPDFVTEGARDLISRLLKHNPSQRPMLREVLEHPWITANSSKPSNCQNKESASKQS
# Experiment: Z-LYTE kinase assay (peptide/kinase mixture with ATP, fluorescence)
# Type: biochemical
row,Compound,IC50
1,"O=C(O)[C@@H]1Cc2c([nH]c3ccc(O)cc23)[C@H](Cc2c[nH]cn2)N1 [compound 3, (−)-(1R^*, 3R^*)-6-hydroxy-1-(4-methylene-1H-imidazole)-2,3,4,9-tetrahydro-1H-β-carboline-3-carboxylic acid]",43.5 µM
2,"CSc1ncn(C)c1C[C@@H]1N[C@H](C(=O)O)Cc2c1[nH]c1ccc(O)cc21 [compound 4, hainanerectamine C]",49.9 µM
3,"C/C=C(/C=O)c1c[nH]c2ccc(O)cc12 [compound 2, hainanerectamine B]",122 µM
